Experimental data from PubChem BioAssay (NCI).
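All cell lines were grown in 96-well plates and treated with compound for 48 hours. The concentration for 50% growth inhibition is given as GI50. TGI: total growth inhibition.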

How the values were obtained:
Assay in all cases: inhibition of tumour cell growth, NCI panel, 48 h
[1] = system: A549 NSCLC
[2] = system: HL-60(TB) leukemia
[3] = system: HS 578T breast
[4] = system: 786-0 renal
[5] = system: TK-10 renal
[6] = system: SK-OV-3 ovarian
[7] = system: ACHN renal
[8] = system: OVCAR-5 ovarian

## C[C@@H](Oc1cc(-c2cnn(C3CCNCC3)c2)cnc1N)c1c(Cl)cc(F)cc1Cl
[1]
  GI50: 1.14 µM
  TGI: 11.3 µM
[2]
  GI50: 0.917 µM
  TGI: 2.95 µM
[3]
  GI50: 2.41 µM
  TGI: 10.1 µM
[4]
  GI50: 2.13 µM
  TGI: 4.84 µM
[5]
  GI50: 3.6 µM
  TGI: 11.6 µM
[6]
  GI50: 3.26 µM
  TGI: 10.8 µM
[7]
  GI50: 2.61 µM
  TGI: 12 µM
[8]
  GI50: 2 µM
  TGI: 10.1 µM

## Cc1ccc(C2C3Cc4ccccc4C3=NN2c2ccc(S(=O)(=O)NC(=O)Nc3ccccc3)cc2)cc1 (stereo unspecified)
[1]
  GI50: 12.7 µM
  TGI: 27.8 µM
[2]
  GI50: 19.6 µM
  TGI: 42.1 µM
[3]
  GI50: 17.4 µM
  TGI: 49.9 µM
[4]
  GI50: 12.8 µM
  TGI: 36.5 µM
[5]
  GI50: 16 µM
  TGI: 36.4 µM
[6]
  GI50: 16.1 µM
  TGI: 31.9 µM
[7]
  GI50: 14.1 µM
  TGI: 27.5 µM
[8]
  GI50: 14.5 µM
  TGI: 30.5 µM

## COc1ccc(-c2nnc(Nc3nc(O)c(C4=c5cc(Br)ccc5=NC4=O)s3)o2)cc1
[1]
  GI50: 26.8 µM
  TGI: > 100 µM
[2]
  GI50: 0.633 µM
  TGI: 9.89 µM
[3]
  GI50: 6.92 µM
  TGI: 22.5 µM
[4]
  GI50: 25.1 µM
  TGI: > 77.8 µM
[5]
  GI50: 18.9 µM
  TGI: 51 µM
[6]
  GI50: 52 µM
  TGI: > 100 µM
[7]
  TGI: 38.8 µM
[8]
  GI50: 26.7 µM
  TGI: 80.3 µM

## CC(=O)c1ccc(Oc2c3ccccc3nc3occc23)cc1
[1]
  GI50: 61.9 µM
  TGI: > 100 µM
[2]
  GI50: 8.43 µM
  TGI: > 100 µM
[3]
  GI50: 12.4 µM
  TGI: 75.5 µM
[4]
  GI50: 33.3 µM
  TGI: > 100 µM
[5]
  GI50: 11.4 µM
  TGI: > 100 µM
[6]
  GI50: 59 µM
  TGI: > 100 µM
[7]
  GI50: 3.57 µM
  TGI: > 100 µM
[8]
  GI50: 27.3 µM
  TGI: > 100 µM

## O=C(CC1Sc2ccccc2NC1=O)NNc1ccc(F)cc1 (stereo unspecified)
[1]
  GI50: 74 µM
  TGI: > 100 µM
[2]
  GI50: 7.9 µM
  TGI: > 100 µM
[3]
  GI50: 72.4 µM
  TGI: > 100 µM
[4]
  GI50: 29.5 µM
  TGI: > 100 µM
[5]
  GI50: > 100 µM
  TGI: > 100 µM
[6]
  GI50: > 100 µM
  TGI: > 100 µM
[7]
  GI50: 7.07 µM
  TGI: > 100 µM
[8]
  GI50: > 100 µM
  TGI: > 100 µM

## c1ccc(/C(=N\Nc2nc3ccccc3s2)c2ccccn2)cc1
[1]
  TGI: > 100 µM
[2]
  TGI: 6.54 µM
[3]
  TGI: > 88.9 µM
[4]
  TGI: 24.4 µM
[5]
  TGI: 37.5 µM
[6]
  TGI: 98.6 µM
[7]
  TGI: > 28.8 µM
[8]
  TGI: > 51.4 µM

## CC(=O)O[C@H]1CC[C@]2(C)C3C(=O)C[C@]4(C)[C@@H](C(C)CCC(=O)O)CC[C@@]4(C)[C@@H]3CC[C@H]2C1(C)C (stereo partly specified)
[1]
  GI50: 15.6 µM
  TGI: > 50 µM
[2]
  GI50: 8.65 µM
  TGI: > 50 µM
[3]
  GI50: 11.9 µM
  TGI: 39.5 µM
[4]
  GI50: 20.7 µM
  TGI: > 50 µM
[5]
  GI50: 21.8 µM
  TGI: > 50 µM
[6]
  GI50: 21.4 µM
  TGI: > 50 µM
[7]
  GI50: 10.7 µM
  TGI: 35.4 µM
[8]
  GI50: > 50 µM
  TGI: > 50 µM

## CCOC(=O)CCSC1=CC(=O)c2nc3ccccc3c3ccnc1c23
[1]
  GI50: 18.3 µM
  TGI: 77.4 µM
[2]
  GI50: 26.7 µM
  TGI: > 100 µM
[3]
  GI50: 32.8 µM
  TGI: > 100 µM
[4]
  GI50: 17.5 µM
  TGI: 39.3 µM
[5]
  GI50: 16.7 µM
  TGI: 32.4 µM
[6]
  GI50: 29.3 µM
  TGI: 93.4 µM
[7]
  GI50: 18.6 µM
  TGI: 42.5 µM
[8]
  GI50: 27.5 µM
  TGI: 91 µM

## NS(=O)(=O)c1cc(C(=O)O)c(Cl)c([N+](=O)[O-])c1Cl
[1]
  TGI: > 100 µM
[2]
  TGI: > 100 µM
[3]
  TGI: > 100 µM
[4]
  TGI: > 100 µM
[5]
  TGI: > 100 µM
[6]
  TGI: > 100 µM
[7]
  TGI: > 100 µM
[8]
  TGI: > 100 µM

## O=c1[nH]c2ccccc2n1C1CCN(CCOc2ccccc2)CC1
[1]
  GI50: 58.3 µM
  TGI: > 100 µM
[2]
  GI50: 12.9 µM
  TGI: > 100 µM
[3]
  GI50: 20.8 µM
  TGI: 77.6 µM
[4]
  GI50: 43.9 µM
  TGI: > 100 µM
[5]
  GI50: 86.2 µM
  TGI: > 100 µM
[6]
  GI50: 42.9 µM
  TGI: > 100 µM
[7]
  GI50: 40.4 µM
  TGI: > 100 µM
[8]
  GI50: 47.8 µM
  TGI: > 100 µM

## COC(=O)[C@H](CCCCNC(=O)OCc1ccccc1)NC(=O)[C@@H](NC(=O)Nc1cc(C(F)(F)F)cc(C(F)(F)F)c1)C(C)C
[1]
  GI50: > 10 µM
  TGI: > 10 µM
[2]
  GI50: > 10 µM
  TGI: > 10 µM
[3]
  GI50: > 10 µM
  TGI: > 10 µM
[4]
  GI50: > 10 µM
  TGI: > 10 µM
[5]
  GI50: > 10 µM
  TGI: > 10 µM
[6]
  GI50: > 10 µM
  TGI: > 10 µM
[7]
  GI50: > 10 µM
  TGI: > 10 µM
[8]
  GI50: > 10 µM
  TGI: > 10 µM

## Nc1no[n+]([O-])c1-c1nnc2c(n1)-c1ccccc1C2=O
[1]
  GI50: 5.44 µM
  TGI: 20.3 µM
[2]
  GI50: 2.13 µM
  TGI: 5.54 µM
[3]
  GI50: 5.58 µM
  TGI: 65 µM
[4]
  GI50: 4.3 µM
  TGI: 16.8 µM
[5]
  GI50: 13.9 µM
  TGI: 27.6 µM
[6]
  GI50: 16.2 µM
  TGI: 51.5 µM
[7]
  GI50: 1.56 µM
  TGI: 3.1 µM
[8]
  GI50: 1.88 µM
  TGI: 3.77 µM

## C1=C\CCCCN2CC[C@H]3[C@H](CCCC/C=C\CCCN4C[C@@H](CCCCC/1)C[C@@H]3C4)C2
[1]
  GI50: 12.1 µM
  TGI: 26.8 µM
[2]
  GI50: 2.77 µM
  TGI: 10.8 µM
[3]
  GI50: 5.22 µM
  TGI: 15.4 µM
[4]
  GI50: 12.5 µM
  TGI: 25.9 µM
[5]
  GI50: 2.98 µM
  TGI: 12.4 µM
[6]
  GI50: 13.3 µM
  TGI: 26.2 µM
[7]
  GI50: 2.8 µM
  TGI: 10.5 µM
[8]
  GI50: 12.5 µM
  TGI: 25.5 µM

## Cc1nn(-c2ccccc2)c2nc(C)n(-c3ccc(Br)cc3)c(=O)c12
[1]
  GI50: 0.927 µM
  TGI: > 100 µM
[2]
  GI50: 0.286 µM
  TGI: 3.07 µM
[3]
  GI50: 0.371 µM
  TGI: > 100 µM
[4]
  GI50: 0.542 µM
  TGI: > 100 µM
[5]
  GI50: 5.53 µM
  TGI: > 100 µM
[6]
  GI50: 1.28 µM
  TGI: > 100 µM
[7]
  GI50: 0.584 µM
  TGI: > 100 µM
[8]
  GI50: 1.99 µM
  TGI: > 100 µM

## CCN(CC)CCCC(C)Nc1ccnc(/C=C/c2ccc(Cl)cc2)c1 (stereo unspecified)
[1]
  TGI: 4.79 µM
[2]
  TGI: > 100 µM
[3]
  TGI: 5.81 µM
[4]
  TGI: 3.45 µM
[5]
  TGI: 4.8 µM
[6]
  TGI: 10.7 µM
[7]
  TGI: 8.68 µM
[8]
  TGI: 8.04 µM

## COc1cccc(-c2nn(-c3ccccc3)cc2-c2ccnc(NCCCNS(=O)(=O)c3ccc(C(F)(F)F)cc3)c2)c1
[1]
  GI50: 6.65 µM
  TGI: > 100 µM
[2]
  GI50: 3.97 µM
  TGI: > 100 µM
[3]
  GI50: 5.41 µM
  TGI: > 100 µM
[4]
  GI50: 4.6 µM
  TGI: > 100 µM
[5]
  GI50: 9.25 µM
  TGI: > 100 µM
[6]
  GI50: 4.82 µM
  TGI: > 100 µM
[7]
  GI50: 4.8 µM
  TGI: > 100 µM
[8]
  GI50: > 100 µM
  TGI: > 100 µM
